Experimental data published in BindingDB's records for doi:10.1016/j.ejmech.2021.113317 (Universities of Shandong, 2021).

How the values were obtained:
[1] = Reversal of MRP2-mediated multidrug resistance in human KBV cells assessed as cisplatin IC50 at 10 uM after 72 hrs in presence of cisplatin by MTT assay (Rvb = 4902.89 +/- 130.33 nM)
[2] = Reversal of MRP2-mediated multidrug resistance in human KBV cells assessed as cisplatin IC50 at 5 uM after 72 hrs in presence of cisplatin by MTT assay (Rvb = 4902.89 +/- 130.33 nM)
[3] = Reversal of BCRP-mediated multidrug resistance in human KBV cells assessed as mitoxantrone IC50 at 5 uM after 72 hrs in presence of mitoxantrone by MTT assay (Rvb = […] +/- 29.24 nM)
[4] = Reversal of BCRP-mediated multidrug resistance in human KBV cells assessed as mitoxantrone IC50 at 10 uM after 72 hrs in presence of mitoxantrone by MTT assay (Rvb = […] +/- 29.24 nM)

IC50 [1] [µM]	IC50 [2] [µM]	Compound	IC50 [3] [nM]	IC50 [4] [nM]
> 5		COc1ccc(CCN(C)CCCC(C#N)(c2ccc(OC)c(OC)c2)C(C)C)cc1OC (centres undefined) [NSC_62969]		
> 5	> 5	CSCC[C@H](NC(=O)OC(C)(C)C)C(=O)O[C@H]1CC[C@]2(C)[C@H]3C[C@@H](O)[C@@H]4[C@@H]([C@]5(C)CC[C@@H](C(C)(C)O)O5)CC[C@@]4(C)[C@]3(C)CC[C@H]2C1(C)C	1460	1010
> 5	> 5	CSCC[C@H](NC(=O)OC(C)(C)C)C(=O)O[C@H]1CC[C@]2(C)[C@H]3C[C@@H](O)[C@@H]4[C@@H]([C@]5(C)CC[C@H](C(C)(C)O)O5)CC[C@@]4(C)[C@]3(C)CC[C@H]2C1(C)C	843	748
